Each structure is given as a SMILES string.

The results in this text go back to patent US20090253709A1 (NATIONAL DEFENSE MEDICAL CENTER, priority 2008, published 2009).

For the first test, the system named is UO-31. Briefly: In vitro cytotoxicity, Development Therapeutics Program. Type of test: cell-based. The following applies: UO-31, renal cancer; 1.0×10^−5 M. The source says: (§1) From the in vitro experiments of the Development Therapeutics Program of the Cancer Research Institute, the United States, it was known that the synthetic heterocyclic anthraquinone derivatives of the present invention have different inhibition levels to the different cancer cell lines under the concentration of 1.0×10^−5 M. Please refer to Table 2, which is the result of in vitro cytotoxicity of 2,7-disubstituted anthraquinone derivatives of the present invention.
As for `O=C1c2ccc(NC(=O)C3CC3)cc2C(=O)c2cc(NC(=O)C3CC3)ccc21` [Compound 32, 2,7-Bis(cyclopropanecarbonamido)anthraquinone], the “Cellular growth rate (%)” value stood at 95.55%.

The subject of a further test is SF-268. The test is described as above. Type of test: cell-based. To be noted: SF-268, CNS cancer; 1.0×10^−5 M.
Description: as §1
With `O=C1c2ccc(NC(=O)C3CC3)cc2C(=O)c2cc(NC(=O)C3CC3)ccc21` [Compound 32, 2,7-Bis(cyclopropanecarbonamido)anthraquinone], the “Cellular growth rate (%)” value came out at 95.09%.

A further test has as its system MCF7. Described as above. Type of test: cell-based. To be noted: MCF7, breast cancer; 1.0×10^−5 M.
Description: as §1
As to `O=C1c2ccc(NC(=O)C3CC3)cc2C(=O)c2cc(NC(=O)C3CC3)ccc21` [Compound 32, 2,7-Bis(cyclopropanecarbonamido)anthraquinone], the “Cellular growth rate (%)” value turned out to be 77.38%.

In a further test the test system is COLO 205. The description is as above. Type of test: cell-based. To be noted: COLO 205, colon cancer; 1.0×10^−5 M.
Description: as §1
Turning to `O=C1c2ccc(NC(=O)C3CC3)cc2C(=O)c2cc(NC(=O)C3CC3)ccc21` [Compound 32, 2,7-Bis(cyclopropanecarbonamido)anthraquinone], the “Cellular growth rate (%)” value amounted to 91.92%.

In a further test the test system is 786-0. Described as above. Type of test: cell-based. To be noted: 786-0, renal cancer; 1.0×10^−5 M.
Description: as §1
With `O=C1c2ccc(NC(=O)C3CC3)cc2C(=O)c2cc(NC(=O)C3CC3)ccc21` [Compound 32, 2,7-Bis(cyclopropanecarbonamido)anthraquinone], the “Cellular growth rate (%)” value was found to be 94.92%.

A further test has as its system SF-295. Described as above. Type of test: cell-based. To be noted: SF-295, CNS cancer; 1.0×10^−5 M.
Description: as §1
With `O=C1c2ccc(NC(=O)C3CC3)cc2C(=O)c2cc(NC(=O)C3CC3)ccc21` [Compound 32, 2,7-Bis(cyclopropanecarbonamido)anthraquinone], the “Cellular growth rate (%)” value turned out to be 86.60%.

Another test concerns NCl-H322M. The test is described as above. Type of test: cell-based. To be noted: non-small cell lung cancer, 1.0×10^−5 M.
Description: as §1
As to `O=C1c2ccc(NC(=O)C3CC3)cc2C(=O)c2cc(NC(=O)C3CC3)ccc21` [Compound 32, 2,7-Bis(cyclopropanecarbonamido)anthraquinone], the “Cellular growth rate (%)” value amounted to 105.77%.

Another test deals with EKVX. The test is described as above. Type of test: cell-based. To be noted: non-small cell lung cancer, 1.0×10^−5 M.
Description: as §1
Turning to `O=C1c2ccc(NC(=O)C3CC3)cc2C(=O)c2cc(NC(=O)C3CC3)ccc21` [Compound 32, 2,7-Bis(cyclopropanecarbonamido)anthraquinone], the “Cellular growth rate (%)” value turned out to be 94.31%.

The next test relates to TK-10. Described as above. The following applies: TK-10, renal cancer; 1.0×10^−5 M. Type of test: cell-based.
Description: as §1
Regarding `O=C1c2ccc(NC(=O)C3CC3)cc2C(=O)c2cc(NC(=O)C3CC3)ccc21` [Compound 32, 2,7-Bis(cyclopropanecarbonamido)anthraquinone], the “Cellular growth rate (%)” value amounted to 136.20%.

For the next test, the system named is PC-3. Described as above. Type of test: cell-based. To be noted: PC-3, prostate cancer; 1.0×10^−5 M.
Description: as §1
For `O=C1c2ccc(NC(=O)C3CC3)cc2C(=O)c2cc(NC(=O)C3CC3)ccc21` [Compound 32, 2,7-Bis(cyclopropanecarbonamido)anthraquinone], the “Cellular growth rate (%)” value came out at 106.89%.

For a further test, the system named is CCRF-CEM. The description is as above. Type of test: cell-based. To be noted: leukemia, 1.0×10^−5 M.
Description: as §1
With `O=C1c2ccc(NC(=O)C3CC3)cc2C(=O)c2cc(NC(=O)C3CC3)ccc21` [Compound 32, 2,7-Bis(cyclopropanecarbonamido)anthraquinone], the “Cellular growth rate (%)” value stood at 90.67%.

The subject of a further test is ACHN. Described as above. Type of test: cell-based. To be noted: renal cancer, 1.0×10^−5 M.
Description: as §1
Turning to `O=C1c2ccc(NC(=O)C3CC3)cc2C(=O)c2cc(NC(=O)C3CC3)ccc21` [Compound 32, 2,7-Bis(cyclopropanecarbonamido)anthraquinone], the “Cellular growth rate (%)” value was found to be 86.70%.

The next test deals with NCI/ADR-RES. The description is as above. Type of test: cell-based. The following applies: breast cancer, 1.0×10^−5 M.
Description: as §1
For `O=C1c2ccc(NC(=O)C3CC3)cc2C(=O)c2cc(NC(=O)C3CC3)ccc21` [Compound 32, 2,7-Bis(cyclopropanecarbonamido)anthraquinone], the “Cellular growth rate (%)” value stood at 90.83%.

The test system of the next test is SR. The description is as above. The following applies: leukemia, 1.0×10^−5 M. Type of test: cell-based.
Description: as §1
Turning to `O=C1c2ccc(NC(=O)C3CC3)cc2C(=O)c2cc(NC(=O)C3CC3)ccc21` [Compound 32, 2,7-Bis(cyclopropanecarbonamido)anthraquinone], the “Cellular growth rate (%)” value was found to be 1.69%.

For the next test, the system named is OVCAR-4. The description is as above. Type of test: cell-based. To be noted: OVCAR-4, ovarian cancer; 1.0×10^−5 M.
Description: as §1
`O=C1c2ccc(NC(=O)C3CC3)cc2C(=O)c2cc(NC(=O)C3CC3)ccc21` [Compound 32, 2,7-Bis(cyclopropanecarbonamido)anthraquinone]: the “Cellular growth rate (%)” value is 97.54%.

A further test relates to LOX IMVI. The description is as above. The following applies: melanoma, 1.0×10^−5 M. Type of test: cell-based.
Description: as §1
Turning to `O=C1c2ccc(NC(=O)C3CC3)cc2C(=O)c2cc(NC(=O)C3CC3)ccc21` [Compound 32, 2,7-Bis(cyclopropanecarbonamido)anthraquinone], the “Cellular growth rate (%)” value is listed as 90.27%.

The subject of the next test is OVCAR-3. The test is described as above. Type of test: cell-based. To be noted: OVCAR-3, ovarian cancer; 1.0×10^−5 M.
Description: as §1
For the molecule `O=C1c2ccc(NC(=O)C3CC3)cc2C(=O)c2cc(NC(=O)C3CC3)ccc21` [Compound 32, 2,7-Bis(cyclopropanecarbonamido)anthraquinone], the “Cellular growth rate (%)” value was found to be 103.35%.

A further test relates to NCl-H226. The test is described as above. Type of test: cell-based. To be noted: NCl-H226, non-small cell lung cancer; 1.0×10^−5 M.
Description: as §1
With `O=C1c2ccc(NC(=O)C3CC3)cc2C(=O)c2cc(NC(=O)C3CC3)ccc21` [Compound 32, 2,7-Bis(cyclopropanecarbonamido)anthraquinone], the “Cellular growth rate (%)” value is reported as 100.60%.

For another test, the system named is SW-620. Described as above. Type of test: cell-based. To be noted: SW-620, colon cancer; 1.0×10^−5 M.
Description: as §1
On to `O=C1c2ccc(NC(=O)C3CC3)cc2C(=O)c2cc(NC(=O)C3CC3)ccc21` [Compound 32, 2,7-Bis(cyclopropanecarbonamido)anthraquinone], for which the “Cellular growth rate (%)” value is recorded as 104.75%.

Another test relates to OVCAR-5. The test is described as above. Type of test: cell-based. The following applies: OVCAR-5, ovarian cancer; 1.0×10^−5 M.
Description: as §1
For `O=C1c2ccc(NC(=O)C3CC3)cc2C(=O)c2cc(NC(=O)C3CC3)ccc21` [Compound 32, 2,7-Bis(cyclopropanecarbonamido)anthraquinone], the “Cellular growth rate (%)” value is on record as 112.01%.

A further test concerns hTERT expression. Briefly: SEAP assay, H1299/PhTERT-driven SEAP system. Type of test: cell-based, human. The following applies: Homo sapiens, NCI-H1299; H1299; compound concentration 1 μM; read-out: SEAP (Inhibition μM ± SD). The source says: The condition of the cells for selecting the telomerase inhibitor must be the cancer cells with telomerase activity. H1299 is a non-small cell lung cancer cell line with telomerase activity. The hTERT communication gene linked behind PhTERT which is located at the fifth chromosome of H1299 cell can be expressed; however, this expression is hard to detect. Therefore, the plasmid having the SEAP communication gene linked behind PhTERT was transfected into H1299 cells. Under the identical condition, after PhTERT was activated, the SEAP communication gene linked behind the plasmid was also activated. This gene could be detected by this analytic method while expressing.
If additionally added reagent can inhibit PhTERT, the linked SEAP communication gene will not be expressed, and the hTERT communication gene linked behind PhTERT at the fifth chromosome will not be expressed. […]
The cellular medium after the cellular incubation was transferred into the eppondorf tube, and the activity of endogeneous alkaline phosphatase was inactivated at 65° C. for 10 minutes. After centrification, the mixture was obtained by mixing 50 μl of the supernatant with the equal volume of the SEAP buffer. The mixture and the substrate (120 mM of p-nitrophenylphosphate) were preheated at 37° C. for 10 minutes respectively, and the mixture and the substrate were mixed at a ratio of 1:10 and reacted at 37° C. The absorbance of visible light at 405 nm was determined at the appropriate time intervals, and the enzymatic activity of SEAP was represented by the speed of the increasing absorbance at 405 nm.
The selection of telomerase inhibitors of the anthraquinone compounds provided in the present invention was performed by the H1299/PhTERT-driven SEAP system. SEAP is the communication gene in this drug selection model. The SEAP inhibition was shown as follows. The quantitative cellular medium obtained after the 24-hour drug-treatment and the identical inactivation was reacted with the quantitative SEAP substrate, and the absorbance at 405 nm was detected for 5 time intervals. Subsequently, the linear slope of absorbance to the measuring time was calculated, and the variance of absorbance at 405 nm per minute was represented and compared with the SEAP-producing result of drug-untreated H1299 cells. In addition, the influence of the cell-treated drug solution to the cellular proliferation and the drug toxicity to the cells were considered, and the cellular growth was evaluated by the MTT assay. The drug-treated cells were analyzed by the SEAP assay and the data analysis of MTT assay at the same time. Both results were compared so as to delete the influence of cell number or the activity to SEAP, and the dose-dependent phenomenon could be anticipated in the range of drug concentration designed by the laboratory.
In the preliminary selection, the highest concentration was 1000 μM, and 10-fold serial dilutions were done. Therefore, the final concentrations for treating cells were 1 μM, 10 μM and 100 μM, and the drug concentrations were repeated for 5 times. Since the chemically-synthetic drugs have colors thereon, the SEAP value of drug-treatment without cells was also determined to be the background value which was deducted while treating with the drugs. The candidate drug for inhibiting telomerase on the hTERT gene expression level was evaluated and anticipated.
For `O=C1c2ccc(NC(=O)C3CC3)cc2C(=O)c2cc(NC(=O)C3CC3)ccc21` [Compound 32, 2,7-Bis(cyclopropanecarbonamido)anthraquinone], the activity at 1 µM was found to be 80 ± 1%.

The test is the same for the next values; noted with them: Homo sapiens, NCI-H1299; H1299; compound concentration 10 μM; read-out: SEAP (Inhibition μM ± SD).
For `O=C1c2ccc(NC(=O)C3CC3)cc2C(=O)c2cc(NC(=O)C3CC3)ccc21` [Compound 32, 2,7-Bis(cyclopropanecarbonamido)anthraquinone], the activity at 10 µM turned out to be 81 ± 1%.

The same test, now with this note: Homo sapiens, NCI-H1299; H1299; compound concentration 100 μM; read-out: SEAP (Inhibition μM ± SD).
Turning to `O=C1c2ccc(NC(=O)C3CC3)cc2C(=O)c2cc(NC(=O)C3CC3)ccc21` [Compound 32, 2,7-Bis(cyclopropanecarbonamido)anthraquinone], the activity at 100 µM was found to be 81 ± 1%.
